From patent US6300501A, “Histidine-(N-benzyl glycinamide) inhibitors of protein farnesyl transferase” (Warner-Lambert Company, priority 1998, dated 2001)
Like-named read-outs stand apart in the source and are kept apart here.

How the values were obtained:
[1] = molecular target: T1, SF9 affinity purified rat farnesyl protein transferase (Rattus norvegicus, UniProt Q02293+Q04631); experiment: PFT inhibitory activity (radiolabeled farnesyl pyrophosphate, streptavidin bead assay); type: biochemical
T1 construct: made in house; host or cells: Sf9 insect cells (baculovirus system inferred from b7)
T1 sequence (Q02293 whole entry, one chain of several): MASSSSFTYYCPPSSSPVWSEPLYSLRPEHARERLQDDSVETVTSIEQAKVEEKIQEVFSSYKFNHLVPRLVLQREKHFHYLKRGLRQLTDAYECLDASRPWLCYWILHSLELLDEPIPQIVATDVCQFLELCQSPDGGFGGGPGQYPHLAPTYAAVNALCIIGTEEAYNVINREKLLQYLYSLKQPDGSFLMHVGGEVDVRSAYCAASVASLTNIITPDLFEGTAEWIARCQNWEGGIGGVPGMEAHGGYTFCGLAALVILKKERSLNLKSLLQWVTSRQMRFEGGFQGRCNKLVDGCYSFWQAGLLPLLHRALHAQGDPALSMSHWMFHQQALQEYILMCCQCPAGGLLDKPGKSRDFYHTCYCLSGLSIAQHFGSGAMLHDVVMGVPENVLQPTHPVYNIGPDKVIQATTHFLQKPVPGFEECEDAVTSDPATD
Procedure, shortened: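 HEPES pH 7.4 with 5 mM potassium phosphate (also run without), 20 μM ZnCl2, 5 mM DTT, 5 mM MgCl2, 0.1% PEG 8000; [3H]farnesyl pyrophosphate 134 nM and biotinyl-Ahe-TKCVIM peptide 0.2 μM final. Incubated 30 min at 30° C, stopped with acidic magnesium acetate/streptavidin bead buffer; bead-bound radioactivity counted.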

[2] = tested on: ras farnesylation in ras-transformed cells; experiment: Gel shift assay; type: cell-based; settings: ras-transformed cells, 18-hour incubation; for minimal effective concentration: read-out: Gel Shift (μM) MED (minimal effective dose to observe inhibition of ras farnesylation)
Procedure, shortened: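 Ras-transformed cells (2×10^6 per condition) treated with farnesylation inhibitor at varying concentrations for 18 h. Ras immunoprecipitated from lysates with Y13-259, resolved on 14% SDS gels and detected by pan-ras Western blot with ECL, farnesylated and unfarnesylated ras separating by mobility shift.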

[3] = tested on: H61 cells: NIH transformed 3T3 H-ras cells; experiment: Clonogenic assay (6 well plates, soft agar); type: cell-based; settings: colonies counted after Day 13, read-out: Clonogenic Assay IC50
Procedure, shortened: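 Soft-agar colony formation: cells seeded in 0.3% agar top layer with 20% calf serum over a 0.6% agar base, drug or DMSO added at 4 µL per mL agar/medium. Incubated at 37 °C, 5% CO2; INT (1 mg/mL) added on day 13 to stain colonies.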

[4] = HEPES buffer pH 7.4, without 5 mM potassium phosphate, read-out: IC50 (μM) Hepes
[5] = HEPES buffer pH 7.4 containing 5 mM potassium phosphate, read-out: IC50 (μM) 5 mM K3 PO4 -2

Structure (SMILES) | IC50 [1, 4] [µM] | IC50 [1, 5] [µM] | minimal effective concentration [2] [µM] | IC50 ([3]; 312 h) [nM] | Gel Shift (μM) MED (minimal effective dose to observe inhibition of ras farnesylation) [2] [µM] | IC50 [3] [nM]
O=C(CN(Cc1ccc(OCc2ccccc2)cc1)C(=O)[C@H](Cc1c[nH]cn1)NC(=O)OCc1ccccc1)NCC(c1ccccc1)c1ccccn1 (stereo partly drawn) [Example 12, (S)-[1-{(4-Benzyloxy-benzyl)-[(2-phenyl-2-pyridin-2-yl-ethylcarbamoyl)-methyl]-carbamoyl}-2-(1H-imidazole-4-yl)-ethyl]-carbamic Acid Benzyl Ester] | 1.1 | 0.062 | 0.2 | > 1000 | – | –
CCC(CC)(CNC(=O)CN(Cc1ccc(OCc2ccccc2)cc1)C(=O)[C@H](Cc1cnc[nH]1)NC(=O)OCc1ccccc1)c1ccccc1 [Example 25, (S)-[1-{(4-Benzyloxy-benzyl)-[(2-ethyl-2-phenyl-butylcarbamoyl)-methyl]-carbamoyl}-2-(3H-imidazole-4-yl)-ethyl]-carbamic Acid Benzyl Ester] | 0.93 | 0.032 | 0.2 | 890 | – | –
CCC(CNC(=O)CN(Cc1ccc(OCc2ccccc2)cc1)C(=O)[C@H](Cc1c[nH]cn1)NC(=O)OCc1ccccc1)c1ccccc1 (stereo partly drawn) [Example 16, (S)-[1-{(4-Benzyloxy-benzyl)-[(2-phenyl-butylcarbamoyl)-methyl]-carbamoyl}-2-(1H-imidazole-4-yl)-ethyl]-carbamic Acid Benzyl Ester] | 0.29 | 0.007 | 0.01 to 0.05 | 400 | – | –
C[C@H](Cc1ccccc1)NC(=O)CN(Cc1ccc(OCc2ccccc2)cc1)C(=O)[C@H](Cc1c[nH]cn1)NC(=O)OCc1ccccc1 [Example 10] | 0.58 | 0.018 | – | – | 0.01 to 0.05 | 710
CC(C)(CNC(=O)CN(Cc1ccc(F)cc1)C(=O)[C@H](Cc1c[nH]cn1)NC(=O)OCc1ccccc1)c1ccccc1 [Example 22, (S)-[1-{(4-Fluoro-benzyl)-[(2-methyl-2-phenyl-propylcarbamoyl)-methyl]-carbamoyl}-2-(1H-imidazole-4-yl)-ethyl]-carbamic Acid Benzyl Ester] | 1.2 | 0.016 | 0.2 | > 1000 | – | –
O=C(CN(Cc1ccc(OCc2ccccc2)cc1)C(=O)[C@H](Cc1c[nH]cn1)NC(=O)OCc1ccccc1)NCCc1ccccc1Br [Example 9, (S)-[1-((4-Benzyloxy-benzyl)-{[2-(2-bromo-phenyl)-ethylcarbamoyl]-methyl}-carbamoyl)-2-(1H-imidazole-4-yl)-ethyl]-carbamic Acid Benzyl Ester] | 4.5 | 0.36 | 0.2 | > 1000 | – | –
CC(CNC(=O)CN(Cc1ccc(OCc2ccncc2)cc1)C(=O)[C@H](Cc1c[nH]cn1)NC(=O)OCc1ccccc1)c1ccccc1 (stereo partly drawn) [Example 34, (S)-(2-(1H-Imidazole-4-yl)-1-{[(2-phenyl-propyl-carbamoyl)-methyl]-[4-(pyridin-4-ylmethoxy)-benzyl]-carbamoyl}-ethyl)-carbamic Acid Benzyl Aster] | 0.097 | 0.002 | 0.05 | – | – | 140
Cc1ccc(CN(CC(=O)NCC(C)c2ccccc2)C(=O)[C@H](Cc2c[nH]cn2)NC(=O)OCc2ccccc2)cc1 (stereo partly drawn) [Example 19, (S)-(2-(1H-Imidazole-4-yl)-1-{(4-methyl-benzyl)-[(2-phenyl-propylcarbamoyl)-methyl]-carbamoyl}-ethyl)-carbamic Acid Benzyl Ester] | 1.26 | 0.015 | 0.05 | 660 | – | –
O=C(CN(Cc1ccc(OCc2ccccc2)cc1)C(=O)[C@H](Cc1c[nH]cn1)NC(=O)OCc1ccccc1)NCCc1ccccc1F [Example 7, (S)-[1-((4-Benzyloxy-benzyl)-{[2-(2-fluoro-phenyl)-ethylcarbamoyl]-methyl]-carbamoyl)-2-(1H-imidazole-4-yl)-ethyl]-carbamic Acid Benzyl Ester] | 9.8 | 0.36 | 0.1 | > 1000 | – | –
COc1ccc(CN(CC(=O)NCC(C)c2ccccc2)C(=O)[C@H](Cc2c[nH]cn2)NC(=O)OCc2ccccc2)cc1 (stereo partly drawn) [Example 20, (S)-(2-(1H-Imidazole-4-yl)-1-{(4-methoxy-benzyl)-[(2-phenyl-propylcarbamoyl)-methyl]-carbamoyl}-ethyl)-carbamic Acid Benzyl Ester] | 1.5 | 0.017 | 0.05 | 460 | – | –
CC(C)(CNC(=O)CN(Cc1ccc(-c2ccccc2)cc1)C(=O)[C@H](Cc1c[nH]cn1)NC(=O)OCc1ccccc1)c1ccccc1 [Example 52, (S)-[1-{Biphenyl-4-ylmethyl-[(2-methyl-2-phenyl-propylcarbamoyl)-methyl]-carbamoyl}-2-(1H-imidazole-4-yl)-ethyl]-carbamic Acid Benzyl Ester] | 0.48 | 0.004 | 0.05 | 520 | – | –
CC(C)(CNC(=O)CN(Cc1ccc(OCc2ccccn2)cc1)C(=O)[C@H](Cc1c[nH]cn1)NC(=O)OCc1ccccc1)c1ccccc1 [Example 40, (S)-(2-(1H-Imidazole-4-yl)-1-{[(2-methyl-2-phenyl-propylcarbamoyl)-methyl]-[4-(pyridin-2-ylmethoxy)-benzyl]-carbamoyl}-ethyl)-carbamic Acid Benzyl Ester] | 0.12 | 0.001 | 0.01 | 190 | – | –
O=C(CN(Cc1ccc(OCc2ccccc2)cc1)C(=O)[C@H](Cc1c[nH]cn1)NC(=O)OCc1ccccc1)NCC(c1ccccc1)c1ccccc1Cl (stereo partly drawn) [Example 24, (S)-[1-((4-Benzyloxy-benzyl)-{[2-(2-chloro-phenyl)-2-phenyl-ethylcarbamoyl]-methyl}-carbamoyl)-2-(1H-imidazole-4-yl)-ethyl]-carbamic Acid Benzyl Ester] | 0.2 | 0.014 | 0.2 | 820 | – | –
CC(CNC(=O)CN(Cc1ccccc1Cl)C(=O)[C@H](Cc1c[nH]cn1)NC(=O)OCc1ccccc1)c1ccccc1 (stereo partly drawn) [Example 28, (S)-[1-{(2-Chloro-benzyl)-[(2-phenyl-propylcarbamoyl)-methyl]-carbamoyl}-2-(1H-imidazole-4-yl)-ethyl]-carbamic Acid Benzyl Ester] | 2.6 | 0.043 | 0.2 | 600 | – | –
C[C@@H](Cc1ccccc1)NC(=O)CN(Cc1ccc(OCc2ccccc2)cc1)C(=O)[C@H](Cc1c[nH]cn1)NC(=O)OCc1ccccc1 [Example 11] | 2.5 | 0.082 | 0.2 | – | – | > 1000
CC(C)(CNC(=O)CN(Cc1ccc(OCc2cccnc2)cc1)C(=O)[C@H](Cc1c[nH]cn1)NC(=O)OCc1ccccc1)c1ccccc1 [Example 50, (S)-(2-(1H-Imidazole-4-yl)-1-{[(2-methyl-2-phenyl-propylcarbamoyl)-methyl]-[4-(pyridin-3-ylmethoxy)-benzyl]-carbamoyl}-ethyl)-carbamic Acid Benzyl Ester] | 0.089 | 0.001 | 0.05 | 270 | – | –
